Test results as given in the Kinase Knowledgebase extract (Sharma et al. 2016).

Target: MAPK14 (human) (UniProt Q16539)
Experiment: Inhibition of MAPK14 Kinase Activity

Sequence of MAPK14 (human) (Q16539 whole entry, looked up): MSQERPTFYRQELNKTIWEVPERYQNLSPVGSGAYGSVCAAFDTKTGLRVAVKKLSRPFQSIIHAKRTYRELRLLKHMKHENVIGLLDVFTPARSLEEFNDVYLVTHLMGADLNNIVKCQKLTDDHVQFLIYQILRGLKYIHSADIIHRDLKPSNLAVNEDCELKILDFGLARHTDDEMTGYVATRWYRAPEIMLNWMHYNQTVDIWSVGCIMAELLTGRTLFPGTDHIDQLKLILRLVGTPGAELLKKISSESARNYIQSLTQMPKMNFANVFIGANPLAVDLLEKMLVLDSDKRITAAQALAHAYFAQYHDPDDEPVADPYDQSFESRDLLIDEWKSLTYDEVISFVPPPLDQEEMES

Row | SMILES | Ki | IC50
1 | CCCNc1ncnc(Nc2cc(C(=O)NOC)ccc2C)c1C#N | 0.97 nM | 
2 | CONC(=O)c1ccc(C)c(Nc2ncnc(NC(C)C)c2C#N)c1 | 0.61 nM | 
3 | CNc1ncnc(Nc2cc(C(=O)NOC)ccc2C)c1C#N | 16 nM | 
4 | Cc1ccc(C(=O)Nc2ccon2)cc1Nc1ncnc(NC(C)C)c1C#N | 0.41 nM | 
5 | Cc1ccc(C(=O)Nc2ccon2)cc1Nc1ncnc(NC2CCCC2)c1C#N | 1.6 nM | 
6 | CNc1nc(Nc2cc(C(=O)NOC)ccc2C)c(C#N)c(N(C)CC(C)(C)C)n1 | 0.047 nM | 
7 | Cc1ccc(C(=O)Nc2ccon2)cc1Nc1nc(N)nc(NC(C)C)c1C#N | 0.057 nM | 
8 | CCn1nccc1NC(=O)c1ccc(C)c(Nc2ncnc(NC(C)C)c2C#N)c1 | 15 nM | 
9 | Cc1ccc(C(=O)Nc2ccon2)cc1Nc1nc(N)nc(NC2CCCC2)c1C#N | 0.16 nM | 
10 | CONC(=O)c1ccc(C)c(Nc2nc(N)nc(N(C)CC(C)(C)C)c2C#N)c1 | 0.05 nM | 
11 | CONC(=O)c1ccc(C)c(Nc2ncnc(N(C)CC(C)(C)C)c2C#N)c1 | 0.15 nM | 
12 | CCn1nccc1NC(=O)c1ccc(C)c(Nc2nc(N)nc(NC(C)C)c2C#N)c1 | 1.5 nM | 1.5 nM
13 | CCn1nccc1NC(=O)c1ccc(C)c(Nc2nc(N)nc(NC3CCCC3)c2C#N)c1 | 1.9 nM | 1.9 nM
14 | CONC(=O)c1ccc(C)c(Nc2nc(N3CCCN(C)CC3)nc(N(C)CC(C)(C)C)c2C#N)c1 | 0.057 nM | 
15 | CCn1nccc1NC(=O)c1ccc(C)c(Nc2ncnc(NC3CCCC3)c2C#N)c1 | 14 nM | 
